Like-named read-outs stand apart in the source and are kept apart here.
Key:
[1] = tested on: nanoparticle composition (enzyme nanoparticles of modified glucose oxidase of the first type crosslinked with glutaraldehyde)
Protocol: Deionized water solutions with varying pH values are then prepared, into which horseradish peroxidase (HRP, 0.4 μg/mL) and ABTS (2.5 mM) are added, followed by addition of the nanoparticle composition (0.1 μg/mL). 1 mL of the resulting mixture is placed in a UV-Vis spectrophotometer (model V670, JASCO), and the detection wavelength is set to 740 nm, corresponding to the characteristic absorption wavelength of ABTS^+·. Subsequently, glucose is added, and the time-dependent absorbance is measured. Using the standard calibration curve of ABTS^+· and the slope of the reaction rate, the time-dependent concentration of ABTS^+· is calculated. Enzyme kinetic parameters are then determined based on the Michaelis-Menten model, with further analysis performed using the Lineweaver-Burk model to evaluate the steady-state enzymatic behavior of the nanoparticle composition under different pH conditions.

[2] = tested on: glucose oxidase nanoparticles; details: comparison value; cited from earlier work
[3] = tested on: nanoparticle composition (enzyme nanoparticles of modified glucose oxidase of the first type crosslinked with glutaraldehyde); details: 35° C.
Protocol: Subsequently, an enzyme reaction solution containing the nanoparticle composition (concentration: 0.1 μg/mL), HRP (concentration: 0.4 μg/mL), and ABTS (concentration: 2.5 mM) is prepared. A volume of 400 μL of the reaction solution is transferred to a J-815 circular dichroism spectrometer for subsequent measurements, and a circulating constant-temperature water bath is activated to regulate the temperature to the desired setting. […] The change in absorbance over time is then recorded. Using the standard calibration curve of ABTS^+· and the rate of absorbance change, the corresponding concentration change of ABTS^+· is calculated. Based on the Michaelis-Menten kinetic model, various enzyme kinetic parameters are derived to evaluate the catalytic efficiency and stability of the nanoparticle composition under different temperature conditions.

[4] = tested on: nanoparticle composition (enzyme nanoparticles of modified glucose oxidase of the first type crosslinked with glutaraldehyde); remark: listed apart in the source
Protocol: Ethanol is then gradually added (5 μl each time) until the solution becomes turbid. Glutaraldehyde is added, and the mixture is stirred at room temperature for 1.5 hours. After the reaction, the formed nanoparticles are collected by centrifugation (12,000 g, 15 minutes). The collected precipitate is resuspended in a mixture of ethanol and deionized water, followed by centrifugation under the same conditions. Subsequently, the nanoparticles are washed twice by centrifugation under the same conditions using ultrapure water. Finally, the precipitate is resuspended in deionized water and stored at 4° C. until use.
Subsequently, the catalytic efficiency of the nanoparticle composition is investigated using the 2,2′-azino-bis(3-ethylbenzothiazoline-6-sulfonic acid) (ABTS) assay. […] The generated H2O2 then reacts with HRP to oxidize the colorless ABTS into the green ABTS radical cation (ABTS^+·), enabling colorimetric analysis of enzyme activity.

[5] = nanoparticle composition, substrate glucose

For `OC[C@H]1OC(O)[C@H](O)[C@@H](O)[C@@H]1O` (some centres unmarked) [glucose], the Kcat/KM ([1]; pH 5) was 5000 M⁻¹ s⁻¹, the Kcat/KM ([1]; pH 7) was “approximately 4.8×10^4 s^−1·M^−1” and the Kcat/KM ([1]; pH 9) was 10000 M⁻¹ s⁻¹. For the same molecule, the “catalytic efficiency (Kcat/KM)” value [2] was 676 M⁻¹ s⁻¹, the Kcat/KM [3] was “approximately 6.0×10^4 s^−1·M^−1” and the “catalytic efficiency (Kcat/KM), times higher than that of glucose oxidase nanoparticles” value ([4]; nanoparticle composition vs glucose oxidase nanoparticles (676 M^−1·s^−1)) was “approximately 66 times”. For the same molecule, the “increase of catalytic efficiency (Kcat/KM) compared to modified glucose oxidase” value ([4]; nanoparticle composition vs modified glucose oxidase) was “more than 300%”, the Kcat [4, 5] was 421.87 s⁻¹ and the Kcat/KM [4, 5] was 45200 M⁻¹ s⁻¹. It also gave a Km [4, 5] of 9.33 mM and a VMax [4, 5] of 0.2646 μM^s − 1.
